Values quoted from earlier work in patent US5385922A, “Thiazolidine derivatives” (Cedona Pharmaceuticals B.V., priority 1990, dated 1995).

Key:
[1] = tested on: angiotensin converting enzyme (ACE); conditions: literature, WO 89/12627, cited from earlier work
[2] = tested on: rat aorta contracted using phenylephrine; conditions: cited from earlier work

Compound: C[C@H](CSN=O)C(=O)N1CCC[C@H]1C(=O)O [S-ni-trosocaptopril]
- ACE-inhibiting effect compared with captopril (in words) [1]: comparable to that of captopril
- IC50 ([1]; read-out: ACE-inhibiting effect IC50): ~1 nM
- IC50 ([2]; rat aorta contracted using phenylephrine, read-out: relaxing effect via the NO portion, IC50): ~100 nM
- relaxing concentration relative to ACE-inhibiting concentration ([2]; relaxation IC50 vs ACE-inhibition IC50): about 100 times higher
